Activity calls are given as the source filed them. The calls are words filed in the database; no cut-off is given here.

This assay has as its target Kinesin-like protein KIF20B (Homo sapiens) (UniProt Q96Q89). The experiment in a line: Inhibition of MPP1 in human HeLaS3 cells assessed as induction of binucleate phenotype after 18 hrs. It counts as cell-based. The settings on record: HeLa S3.

Chain of Kinesin-like protein KIF20B (Homo sapiens) (Q96Q89 whole entry): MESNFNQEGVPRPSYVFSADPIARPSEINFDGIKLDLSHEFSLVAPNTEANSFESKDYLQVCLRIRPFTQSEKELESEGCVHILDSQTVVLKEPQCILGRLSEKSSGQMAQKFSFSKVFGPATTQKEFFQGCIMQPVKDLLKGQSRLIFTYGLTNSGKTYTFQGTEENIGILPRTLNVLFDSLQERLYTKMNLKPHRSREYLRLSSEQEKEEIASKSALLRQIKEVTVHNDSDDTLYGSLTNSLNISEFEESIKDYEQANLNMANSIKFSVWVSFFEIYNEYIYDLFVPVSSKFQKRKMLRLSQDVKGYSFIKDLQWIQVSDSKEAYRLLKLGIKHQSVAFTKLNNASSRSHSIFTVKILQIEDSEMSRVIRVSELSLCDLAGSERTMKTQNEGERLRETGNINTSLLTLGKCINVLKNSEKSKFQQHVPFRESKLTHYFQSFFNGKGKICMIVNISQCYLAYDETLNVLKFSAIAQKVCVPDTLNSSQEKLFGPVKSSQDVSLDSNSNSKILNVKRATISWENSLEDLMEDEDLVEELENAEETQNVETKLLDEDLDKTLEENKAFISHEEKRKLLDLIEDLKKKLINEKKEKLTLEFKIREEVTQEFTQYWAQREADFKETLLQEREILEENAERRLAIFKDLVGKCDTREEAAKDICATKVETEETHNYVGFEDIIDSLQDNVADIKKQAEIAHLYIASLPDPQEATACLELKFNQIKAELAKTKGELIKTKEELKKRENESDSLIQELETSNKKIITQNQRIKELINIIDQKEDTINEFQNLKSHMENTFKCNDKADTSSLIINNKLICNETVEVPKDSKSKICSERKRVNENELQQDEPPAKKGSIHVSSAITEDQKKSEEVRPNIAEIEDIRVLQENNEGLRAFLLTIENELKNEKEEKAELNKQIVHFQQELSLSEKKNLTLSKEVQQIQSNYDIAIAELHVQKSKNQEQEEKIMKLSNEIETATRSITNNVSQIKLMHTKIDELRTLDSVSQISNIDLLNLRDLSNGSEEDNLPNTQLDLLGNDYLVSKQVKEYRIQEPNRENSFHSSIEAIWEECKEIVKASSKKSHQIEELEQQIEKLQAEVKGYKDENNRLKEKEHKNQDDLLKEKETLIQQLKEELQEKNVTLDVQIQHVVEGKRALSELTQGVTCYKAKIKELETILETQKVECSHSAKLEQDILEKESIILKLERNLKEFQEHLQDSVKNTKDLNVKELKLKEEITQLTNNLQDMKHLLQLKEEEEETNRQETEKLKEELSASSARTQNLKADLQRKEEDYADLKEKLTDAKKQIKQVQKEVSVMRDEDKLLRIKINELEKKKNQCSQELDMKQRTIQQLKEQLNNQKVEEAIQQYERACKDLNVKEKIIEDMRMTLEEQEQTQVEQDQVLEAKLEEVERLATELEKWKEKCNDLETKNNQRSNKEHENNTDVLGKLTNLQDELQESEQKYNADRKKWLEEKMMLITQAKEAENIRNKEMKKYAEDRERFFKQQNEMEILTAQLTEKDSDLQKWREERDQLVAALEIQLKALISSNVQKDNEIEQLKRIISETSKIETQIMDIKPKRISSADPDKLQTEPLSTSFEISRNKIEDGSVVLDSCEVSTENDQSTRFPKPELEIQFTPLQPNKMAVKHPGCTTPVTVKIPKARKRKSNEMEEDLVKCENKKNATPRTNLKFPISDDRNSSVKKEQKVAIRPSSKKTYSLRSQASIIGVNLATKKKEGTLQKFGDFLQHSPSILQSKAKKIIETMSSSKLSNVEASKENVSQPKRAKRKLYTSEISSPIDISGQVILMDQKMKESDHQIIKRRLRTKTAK

`FC(F)(F)c1cc(Cl)c2ncc(-c3ccc(Cl)c(Cl)c3)nc2c1`: the inhibition entry was “Active”.

The values above are taken from ChEMBL document CHEMBL3880384, “2-Phenylquinoxalines as inhibitors for MPP1” (2006).
